{"source": "patent US20110263478A1", "about": "“SUR1 INHIBITORS FOR THERAPY” (priority 2008, published 2011)", "key": {"[1]": {"assay": "Tail tip bleeding time in uninjured rats", "format": "in vivo, rat", "conditions": "for effect on bleeding time: same infusion dose", "method": "Bleeding times were measured using tail tip bleeding as described (Lorrain et al., 2003)."}, "[2]": {"system": "recombinant MMP-2 and MMP-9", "assay": "Zymography of gelatinase activity of recombinant MMP", "format": "biochemical", "conditions": "glibenclamide 10 μM; MMP-inhibitor II 300 nM", "method": "In post-ischemic reperfusion of CNS tissues, catastrophic failure of capillary integrity has been attributed to the action of matrix metalloproteinases (MMP) (Wang et al., 2004).\nZymography of recombinant MMP-2 and MMP-9 (Sigma) was performed as described (Sumii and Lo, 2002)."}, "[3]": {"system": "rats with spinal cord injury (SCI)", "conditions": "rodent model of SCI (Simard et al., 2007); cited from earlier work"}, "[4]": {"conditions": "male, Long-Evans, rat, in vivo", "source_text": "(§1) Young adult male Long-Evans rats, 240-280 gm, were studied. Rats were anesthetized (Ketamine and Xylazine) and physiological parameters including temperature and blood gases were maintained within appropriate physiological ranges. With the head fixed in a stereotaxic frame, a 6-mm circular craniectomy was created abutting the sagittal and lambdoidal sutures. A posterior location was chosen to emphasize damage to underlying hippocampus (Vink et al., 2001; Floyd et al., 2002). […] Sham controls underwent craniectomy without percussion."}, "[5]": {"system": "NCCa-ATP channels in bEnd.3 cells", "assay": "Patch clamp, Na azide-induced ATP depletion current in endothelial cells exposed to hypoxia", "format": "cell-based, murine", "conditions": "1 μM glibenclamide; hypoxic endothelial cells", "method": "Patch clamp of endothelial cells was performed using a nystatin-perforated patch technique, to maintain the metabolic integrity of the cells. The identity of the activated channel can be assessed by measurement of the “reversal potential”, the potential at which an ion channel current reverses from inward to outward. With physiologically relevant concentrations of ions intracellularly and extracellularly (high potassium inside, high sodium outside), the reversal potential can unambiguously distinguish between a K^+ channel current such as KATP, which reverses negative to −50 mV and a non-selective cation channel current such as NCCa-ATP, which reverses near 0 mV.\nCell culture. Endothelial cell cultures from human brain microvessels, human aorta (ScienCell Research Laboratories), and murine brain microvessels (bEnd.3; ATCC), were grown at low density using media and supplements recommended by suppliers."}, "[6]": {"conditions": "in humans; cited from earlier work"}, "[7]": {"system": "rats with spinal cord injury (SCI)", "assay": "Rat cervical SCI model: hemorrhage / extravasated blood in cord", "format": "in vivo", "conditions": "200 ng/h s.q.", "method": "Constant infusion of a low-dose of drug was used to achieve sustained occupancy of only high-affinity receptors.\n(§2) SCI injury model. This study was performed in accordance with the guidelines of the Institutional Animal Care and Use Committee. Adult female Long-Evans rats (275-350 gm) were anesthetized (Ketamine, 60 mg/kg plus Xylazine, 7.5 mg/kg, i.p.). The dura at C4-5 was exposed via a left hemilaminectomy. A hemi-cervical spinal cord contusion was created using a blunt force impactor (1.3-mm impactor head driven by a 10 gm weight dropped vertically 25 mm) (Soblo sky et al., 2001; Gensel et al., 2006). After SCI, animals were given 10 ml of glucose-free normal saline s.q. Rectal temperature was maintained at ˜37° C. using a servo-controlled warming blanket. Blood gases and serum glucose 10-15 min post-SCI were: pO2, 95±6 mm Hg; pCO2, 46±3 mm Hg; pH, 7.33±0.01; glucose 258±17 mg/dl in controls and pO2, 96±7 mm Hg; pCO2, 45±2 mm Hg; pH, 7.37±0.01; glucose 242±14 mg/dl in glibenclamide-treated animals.\n(§3) Drug delivery. […] During the course of the project, slightly different formulations of drug were used, with the best results obtained using stock solutions made by placing 50 mg (or 25 mg) of drug into 10 ml DMSO, and infusion solutions made by placing 400 μl (or 800 μl) stock into 4.6 ml (or 4.2 ml) unbuffered saline (0.9% NaCl) and adjusting the pH to ˜8.5 using 0.1 N NaOH.\nFor in vivo gene suppression of SUR1, we used oligodeoxynucleotides that were phosphorothioated at 4 distal bonds to protect against endogenous nucleases (35). Within a few min of SCI, mini-osmotic pumps (Alzet 2002, 0.5 μl/h; Durect Corporation) with jugular vein catheters were implanted that delivered either scrambled sequence ODN (Scr-ODN) (5′-[…]-3′; SEQ ID NO:1) or antisense ODN (AS-ODN) (5′-[…]-3′; SEQ ID NO:2) (Yokoshiki et al., 1999) in PBS at a rate of 1 mg/rat/24 h.\nTissue blood. Rats were sacrificed at various times after SCI (n=5-11 rats/group), were perfused with heparinized saline to remove intravascular blood, and 5-mm segments of cord encompassing the lesion were homogenized and processed as described (Choudhri et al., 1997)."}, "[8]": {"conditions": "cited from earlier work"}, "[9]": {"system": "rodent models of ischemic stroke", "conditions": "cited from earlier work"}, "rats with percussion-TBI [10]": {"system": "rats with percussion-TBI", "assay": "Percussion-TBI rats: neurobehavioral function (SFU, SVE)", "format": "in vivo, rat", "source_text": "as §1\nSpontaneous forelimb use (SFU) was quantified and spontaneous vertical exploration (SVE) was quantified during 7 days post-TBI. SFU measures sensorimotor asymmetry (Schallert et al., 2000) whereas SVE measures not only vestibulomotor function but also time spent in exploratory activity."}, "rats with percussion-TBI [11]": {"system": "rats with percussion-TBI", "assay": "Percussion-TBI rats: lesion size and hippocampal histology", "format": "in vivo, rat", "conditions": "7 days post-TBI", "source_text": "as §1"}, "[12]": {"conditions": "rat, in vivo", "method": "as §2, §3"}, "[13]": {"conditions": "model of malignant cerebral edema"}}, "note": "“Also recorded” adds a separate entry of the source."}
{"smiles": "COc1ccc(Cl)cc1C(=O)NCCc1ccc(S(=O)(=O)NC(=O)NC2CCCCC2)cc1", "note": "[glibenclamide]", "values": [{"measurement": "tail bleeding time", "setting": "[1]; n=3-5, P=0.6", "value": "21.5 ± 3.1", "unit": "s"}, {"measurement": "effect on bleeding time", "setting": "[1]", "value": "no effect"}, {"measurement": "effect on bleeding time", "setting": "[1]; listed as Glibenclamide", "value": "did not affect"}, {"measurement": "gelatinase activity of recombinant MMP", "setting": "[2]", "value": "the same; also recorded: not affected"}, {"measurement": "reduction in lesion volume after SCI", "setting": "[3]", "value": 3, "unit": "fold"}, {"measurement": "time required to achieve 90% steady-state serum drug levels", "setting": "[4]", "value": 3, "unit": "h"}, {"measurement": "block of Na azide-induced ohmic current", "setting": "[5]", "value": "blocked"}, {"measurement": "volume of distribution", "setting": "[6]", "value": 0.2, "unit": "L/kg"}, {"measurement": "hemorrhage in cord on inspection", "setting": "[7]; 24 h post-SCI, vs vehicle", "value": "visibly less hemorrhage"}, {"measurement": "extravasated blood in tissue homogenates", "setting": "[7]; during the 24 h after SCI", "value": "little increase in extravasated blood"}, {"measurement": "pKa", "setting": "[8]", "value": 6.3}, {"measurement": "reduction of cerebral edema (excess water)", "setting": "[9]; [13]", "value": "half"}, {"measurement": "reduction of mortality", "setting": "[9]; [13]", "value": "half"}, {"measurement": "reduction of lesion volume", "setting": "[9]; stroke induced by thromboemboli", "value": "half"}, {"measurement": "spontaneous vertical exploration (SVE)", "setting": "rats with percussion-TBI [10]; 1, 2 and 7 days post-TBI, vs controls", "value": "significantly greater SVE scores"}, {"measurement": "spontaneous use of forelimb contralateral to injury", "setting": "rats with percussion-TBI [10]; 2 days post-TBI, controls 3.5±3.5%, P=0.05", "value": "16.5±3.4", "unit": "%"}, {"measurement": "hippocampus on Nissl stained sections", "setting": "rats with percussion-TBI [11]", "value": "sparing of hippocampus, including sparing of neurons in CA1, CA3 and dentate gyrus regions"}, {"measurement": "lesion area on coronal sections at epicenter of injury", "setting": "rats with percussion-TBI [11]; control 8.2±1.3, P=0.025", "value": "4.4±0.8", "unit": "mm^2"}, {"measurement": "serum glucose", "setting": "[12]", "value": "242 ± 14", "unit": "mg/dL"}]}
